Source: paper PMC10035947, “Development of novel anilinoquinazoline-based carboxylic acids as non-classical carbonic anhydrase IX and XII inhibitors” (Journal of Enzyme Inhibition and Medicinal Chemistry, 2023)
Like-named read-outs stand apart in the source and are kept apart here.

Experiments:
hCA II = target: T1, hCA II (Homo sapiens, UniProt P00918); assay: stopped flow CO2 hydrase assay; assay type: biochemical; details: mean from 3 assays
T1 construct: made in house
Description: Carbonic anhydrase inhibition assay
The carbonic anhydrase catalyzed CO2 hydration actions for the quinazoline-based carboxylic acid derivatives (6a-c, 7a-c and 8a-c) were assayed utilizing an instrument of Applied Photophysics stopped-flow, as described previously. The enzymes are recombinant proteins prepared in our lab. Phenol red (at a concentration of 0.2 mM) has been used as indicator, working at the absorbance maximum of 557 nm, with 20 mM Hepes (pH 7.5) as buffer, and 20 mM Na2SO4 (for maintaining constant the ionic strength), following the initial rates of the CA- […]
1.7 to 17 mM for the determination of the kinetic parameters and inhibition constants. For each inhibitor at least six traces of the initial 5-10% of the reaction have been used for determining the initial velocity. The uncatalyzed rates were determined in the same manner and subtracted from the total observed rates. Stock solutions of inhibitor (0.1 mM) were prepared in distilled-deionized water and dilutions up to 0.01 nM were done thereafter with the assay buffer. Inhibitor and enzyme solutions were preincubated together for 15 min at room temperature prior to assay, in order to allow for the formation of the E-I complex. The inhibition constants were obtained by non-linear least-squares methods using PRISM 3 and the Cheng-Prusoff equation, and represent the mean from at least three different determinations.

HOP-62 = assay: NCI SRB assay; assay type: cell-based, human
NCI-H460 = assay: NCI SRB assay; assay type: cell-based, human
NCI-H522 = assay: NCI SRB assay; assay type: cell-based, human
COLO 205 = assay: NCI SRB assay; assay type: cell-based, human
HCC-2998 = assay: NCI SRB assay; assay type: cell-based, human; details: for CC50: read-out: LC50 (the source's name)
HCT-116 = assay: NCI SRB assay; assay type: cell-based, human; details: for CC50: read-out: LC50 (the source's name)
HT29 = assay: NCI SRB assay; assay type: cell-based, human
KM12 = assay: NCI SRB assay; assay type: cell-based, human
SW-620 = assay: NCI SRB assay; assay type: cell-based, human
SNB-75 = assay: NCI SRB assay; assay type: cell-based, human; details: for CC50: read-out: LC50 (the source's name)
U251 = assay: NCI SRB assay; assay type: cell-based, human; details: for CC50: read-out: LC50 (the source's name)
MALME-3M = assay: NCI SRB assay; assay type: cell-based, human; details: for CC50: read-out: LC50 (the source's name)
M14 = assay: NCI SRB assay; assay type: cell-based, human; details: for CC50: read-out: LC50 (the source's name)
MDA-MB-435 = assay: NCI SRB assay; assay type: cell-based; details: Homo sapiens, MDA-MB-435
[1] = Homo sapiens, NCI-H522, NCI-H522, 5-dose
[2] = Homo sapiens, HT-29, HT29, 5-dose
[3] = Homo sapiens, KM12, KM 12, 5-dose
[4] = Homo sapiens, SNB-75, SNB-75, 5-dose
[5] = Homo sapiens, U-251, U251, 5-dose

Cc1ccc(-c2nc(Nc3ccccc3C(=O)O)c3ccccc3n2)cc1 [6b, 2-((2-(p-Tolyl)quinazolin-4-yl)amino)benzoic acid] was tested, and the Ki (hCA II) was 48.2 µM, the GI% (HOP-62; HOP-62, 10 μM) was 72% and the “Growth Percent” value (HOP-62; HOP-62, 1.00E-5 Molar) was 28.29%. For the same compound, the LC50 (HOP-62; HOP-62, 5-dose) was less than 100 µM, the TGI (HOP-62; HOP-62, 5-dose) was 33.7 µM and the TGI (HOP-62; HOP-62, 5-dose, listed as D - 835857) was 3.37E-5 Molar. For the same compound, the LC50 (HOP-62; Homo sapiens, HOP-62, HOP-62, 5-dose) was greater than 100 µM, the GI50 (HOP-62; Homo sapiens, HOP-62, 5-dose) was 10.8 µM and the GI50 (NCI-H460; Homo sapiens, NCI-H460, NCI-H460, 5-dose) was 8.52 µM. For the same compound, the LC50 (concentration giving 50% net cell kill) (NCI-H460; Homo sapiens, NCI-H460, 5-dose) was 84 µM, the GI% (NCI-H460; NCI-H460, 10 μM) was 109% and the “Growth Percent” value (NCI-H460; NCI-H460, 1.00E-5 Molar) was -9.44%. It also gave a GI50 (NCI-H460; NCI-H460, 5-dose) of 8.5 µM, a TGI (NCI-H460; NCI-H460, 5-dose) of 27.7 µM and a TGI (NCI-H460; NCI-H460, 5-dose, listed as D - 835857) of 2.77E-5 Molar. The GI50 (NCI-H522; [1]) was 4.35 µM, the LC50 (NCI-H522; [1]) was greater than 100 µM and the GI% (NCI-H522; NCI-H522, 10 μM) was 67%. For the same compound, the “Growth Percent” value (NCI-H522; NCI-H522, 1.00E-5 Molar) was 33.17%, the GI50 (NCI-H522; NCI-H522, 5-dose) was 4.4 µM and the LC50 (NCI-H522; NCI-H522, 5-dose) was less than 100 µM. For the same compound, the TGI (NCI-H522; NCI-H522, 5-dose) was 27.1 µM, the TGI (NCI-H522; NCI-H522, 5-dose, listed as D - 835857) was 2.71E-5 Molar and the GI% (COLO 205; COLO 205, 10 μM) was “– (Only GI% higher than 20% are shown)”. For the same compound, the “Growth Percent” value (COLO 205; COLO 205, 1.00E-5 Molar) was 80.94%, the TGI (COLO 205; COLO 205, 5-dose) was 41.0 µM and the TGI (COLO 205; COLO 205, 5-dose, listed as D - 835857) was 4.10E-5 Molar. For the same compound, the GI50 (COLO 205; Homo sapiens, COLO 205, 5-dose) was 17.8 µM, the LC50 (concentration killing 50% of cells) (COLO 205; Homo sapiens, COLO 205, 5-dose) was 94.1 µM and the GI% (HCC-2998; HCC-2998, 10 μM) was 95%. The “Growth Percent” value (HCC-2998; HCC-2998, 1.00E-5 Molar) was 5.44%, the TGI (HCC-2998; HCC-2998, 5-dose) was 36.0 µM and the TGI (HCC-2998; HCC-2998, 5-dose, listed as D - 835857) was 3.60E-5 Molar. It also gave a CC50 (HCC-2998; HCC-2998, 5-dose) of less than 100 µM, a CC50 (HCC-2998; Homo sapiens, HCC 2998, HCC-2998, 5-dose) greater than 100 µM and a GI50 (HCC-2998; Homo sapiens, HCC-2998, 5-dose) of 12.4 µM. The GI% (HCT-116; HCT-116, 10 μM) was 93%, the “Growth Percent” value (HCT-116; HCT-116, 1.00E-5 Molar) was 6.70% and the TGI (HCT-116; HCT-116, 5-dose) was 36.1 µM. For the same compound, the TGI (HCT-116; HCT-116, 5-dose, listed as D - 835857) was 3.61E-5 Molar, the CC50 (HCT-116; HCT-116, 5-dose) was less than 100 µM and the CC50 (HCT-116; Homo sapiens, HCT-116, HCT-116, 5-dose) was greater than 100 µM. For the same compound, the GI50 (HCT-116; Homo sapiens, HCT-116, 5-dose) was 10.1 µM, the GI% (HT29; HT29, 10 μM) was 82% and the “Growth Percent” value (HT29; HT29, 1.00E-5 Molar) was 17.79%. For the same compound, the LC50 (50% lethal concentration) (HT29; HT29, 5-dose) was less than 100 µM, the TGI (HT29; HT29, 5-dose) was less than 100 µM and the TGI (HT29; HT29, 5-dose, listed as D - 835857) was greater than 1.00E-4 Molar. It also gave a GI50 (HT29; [2]) of 17.9 µM, an LC50 (50% lethal concentration) (HT29; [2]) greater than 100 µM and an LC50 (KM12; [3]) of less than 100 µM. For the same compound, the LC50 (KM12; Homo sapiens, KM12, KM12, 5-dose) was greater than 100 µM, the GI50 (KM12; [3]) was 13.7 µM and the GI% (KM12; KM12, 10 μM) was 92%. The “Growth Percent” value (KM12; KM12, 1.00E-5 Molar) was 8.37%, the TGI (KM12; KM 12, 5-dose) was 81.2 µM and the TGI (KM12; KM12, 5-dose) was 8.12E-5 Molar. It also gave an LC50 (SW-620; Homo sapiens, SW-620, SW-620, 5-dose) greater than 100 µM, a GI50 (SW-620; Homo sapiens, SW-620, 5-dose) of 18.2 µM and a GI% (SW-620; SW-620, 10 μM) of 86%. The “Growth Percent” value (SW-620; SW-620, 1.00E-5 Molar) was 14.46%, the LC50 (SW-620; SW-620, 5-dose) was less than 100 µM and the TGI (SW-620; SW-620, 5-dose) was less than 100 µM. For the same compound, the TGI (SW-620; SW-620, 5-dose, listed as D - 835857) was greater than 1.00E-4 Molar, the GI50 (SNB-75; [4]) was 1.36 µM and the CC50 (SNB-75; [4]) was greater than 100 µM. For the same compound, the GI% (SNB-75; SNB-75, 10 μM) was 84%, the “Growth Percent” value (SNB-75; SNB-75, 1.00E-5 Molar) was 15.71% and the GI50 (SNB-75; SNB-75, 5-dose) was 1.4 µM. For the same compound, the TGI (SNB-75; SNB-75, 5-dose) was 80.3 µM, the TGI (SNB-75; SNB-75, 5-dose, listed as D - 835857) was 8.03E-5 Molar and the CC50 (SNB-75; SNB-75, 5-dose) was less than 100 µM. It also gave a GI50 (U251; [5]) of 5.58 µM, a CC50 (U251; [5]) greater than 100 µM and a GI% (U251; U251, 10 μM) of 82%. For the same compound, the “Growth Percent” value (U251; U251, 1.00E-5 Molar) was 18.45%, the GI50 (U251; U251, 5-dose) was 5.6 µM and the TGI (U251; U251, 5-dose) was 35.0 µM. The TGI (U251; U251, 5-dose, listed as D - 835857) was 3.50E-5 Molar, the CC50 (U251; U251, 5-dose) was less than 100 µM and the GI% (MALME-3M; 10 μM) was 80%. The “Growth Percent” value (MALME-3M; 1.00E-5 Molar) was 19.56%, the TGI (MALME-3M; 5-dose) was 64.5 µM and the TGI (MALME-3M; 5-dose, listed as D - 835857) was 6.45E-5 Molar. For the same compound, the CC50 (MALME-3M; 5-dose) was less than 100 µM, the GI50 (MALME-3M; Homo sapiens, 5-dose) was 15.6 µM and the CC50 (MALME-3M; Homo sapiens, Malme-3M, 5-dose) was greater than 100 µM. For the same compound, the CC50 (M14; Homo sapiens, M14, M14, 5-dose) was greater than 100 µM, the GI50 (M14; Homo sapiens, M14, 5-dose) was 15.5 µM and the GI% (M14; M14, 10 μM) was 87%. The “Growth Percent” value (M14; M14, 1.00E-5 Molar) was 12.58%, the TGI (M14; M14, 5-dose) was 77.4 µM and the TGI (M14; M14, 5-dose, listed as D - 835857) was 7.74E-5 Molar. The CC50 (M14; M14, 5-dose) was less than 100 µM and the GI50 (MDA-MB-435) was 13.9 µM.
